In patent US6608049B2, “Indazoles” (Bayer Aktiengesellschaft, priority 2000, dated 2003):
pEC50: −log10 of the molar value.

Test: T3 promoter assay cell test (luciferase reporter under a thyroid hormone-regulated promoter)
Format: cell-based
Details: Homo sapiens; HepG2 luciferase reporter; costimulator retinolic acid; incubation 48 or 72 hours; four replicates
Experimental: The efficacy of the compounds according to the invention can be tested, for example, in vitro by the T3 promoter assay cell test described below:
The test is carried out using a stably transfected, human HepG2 hepatocarcinoma cell which expresses a luciferase gene under the control of a thyroid hormone-regulated promoter. The vector used for the transfection carries a minimal thymidine kinase promoter ahead of the luciferase gene having a thyroid hormone-responsive element (TRE) which consists of two inverted palindromes of 12 bp each and one 8 bp spacer.
For the test, the cell cultures are inoculated into 96 well plates in Eagle's Minimal Essential Medium with the following additives: glutamine, tricine [N-(tris-(hydroxymethyl)-methyl)-glycine], sodium pyruvate, non-essential amino acids (L-Ala, L-Asn, L-Asp, L-Pro, L-Ser, L-Glu, Gly), insulin, selenium and transferrin. The cultures are grown at 37° C. and under a 10% CO2 atmosphere for 48 hours. Serial dilutions of test substance or reference compound (T3, T4) and costimulator retinolic acid are then added to the test cultures and these are incubated for a further 48 or 72 hours as beforehand. Each substance concentration is tested in four replicates. For the determination of the luciferase induced by T3 or other substances, the cells are then lysed by addition of a Triton- and […] buffer (Promega) and immediately measured luminometrically. The EC50 values of each compound are calculated.

pEC50	SMILES
6.94	CCCc1n[nH]c2ccc(Oc3c(C)cc(N)cc3C)cc12 [Example 4, 5-(4-Amino-2,6-dimethylphenoxy)-3-propyl-1H-indazole]
6.72	CCOC(=O)C(=O)Nc1cc(C)c(Oc2ccc3[nH]nc(C(C)C)c3c2)c(C)c1 [Example 9, Ethyl ({3,5-dimethyl-4-[(3-isopropyl-1H-indazol-5-yl)oxy]phenyl}amino)(oxo)-acetate]
8.00	CCCCCc1n[nH]c2ccc(Oc3c(C)cc(NC(=O)C(=O)OCC)cc3C)cc12 [Example 11, Ethyl ({3,5-dimethyl-4-[(3-pentyl-1H-indazol-5-yl)oxy]phenyl}amino)(oxo)acetate]
7.89	CCCCCc1n[nH]c2ccc(Oc3c(C)cc(NC(=O)C(=O)O)cc3C)cc12 [Example 11a, ({3,5-dimethyl-4-[(3-pentyl-1H-indazol-5-yl)oxy]phenyl}amino)(oxo)acetic acid]
8.00	CCCCCc1n[nH]c2ccc(Oc3c(C)cc(NCC(=O)OCC)cc3C)cc12 [Example 16, Ethyl ({3,5-dimethyl-4-[(3-pentyl-1H-indazol-5-yl)oxy]phenyl}amino)acetate]
7.74	CCCCCc1n[nH]c2ccc(Oc3c(C)cc(NC(=O)CC(=O)OC)cc3C)cc12 [Example 18, Methyl-({3,5-dimethyl-4-[(3-pentyl-1H-indazol-5-yl)oxy]phenyl}amino)-3-(oxo)-propionate]
